Source: ChEMBL document CHEMBL1136368, “Antiviral activity of cyclopentenyl nucleosides against orthopox viruses (Smallpox, monkeypox and cowpox)” (Bioorg Med Chem Lett, 2003)
≈ marks a conversion by molar mass, not a printed value.

Experiments:
Vero [1] = test system: Vero
Vero [2] = test system: Vero; remark: listed apart in the source
Vero [3] = test system: Vero; remark: listed apart in the source
Vero [4] = test system: Vero; remark: listed apart in the source
Vero [5] = test system: Vero; remark: listed apart in the source
Vero [6] = test system: Vero; remark: listed apart in the source
Vero [7] = test system: Vero; remark: listed apart in the source
Vero [8] = test system: Vero; remark: listed apart in the source
Vero [9] = test system: Vero; remark: listed apart in the source
Vero [10] = test system: Vero; remark: listed apart in the source
in vitro [11] = details: monkey, Vero 76 cells (ATCC CRL 1587)
in vitro [12] = details: rhesus monkey, LLC-MK2 cells (ATCC CRL 7)
in vitro [13] = details: rhesus monkey, LLC-MK2 cells (ATCC CRL 7); remark: listed apart in the source
in vitro [14] = details: rhesus monkey, LLC-MK2 cells (ATCC CRL 7); remark: listed apart in the source
in vitro [15] = details: monkey, Vero 76 cells (ATCC CRL 1587); remark: listed apart in the source
in vitro [16] = details: rhesus monkey, LLC-MK2 cells (ATCC CRL 7); remark: listed apart in the source
in vitro [17] = details: monkey, Vero 76 cells (ATCC CRL 1587); remark: listed apart in the source
in vitro [18] = details: rhesus monkey, LLC-MK2 cells (ATCC CRL 7); remark: listed apart in the source
in vitro [19] = details: monkey, Vero 76 cells (ATCC CRL 1587); remark: listed apart in the source
in vitro [20] = details: monkey, Vero 76 cells (ATCC CRL 1587); remark: listed apart in the source

Row | SMILES | EC50 (Vero [1]) | EC50 (Vero [2]) | EC50 (Vero [3]) | EC50 (Vero [4]) | EC50 (Vero [5]) | IC50 (Vero [6]) | IC50 (Vero [7]) | IC50 (Vero [8]) | IC50 (Vero [9]) | IC50 (Vero [10]) | selectivity ratio (in vitro [11]) | selectivity ratio (in vitro [12]) | selectivity ratio (in vitro [13]) | selectivity ratio (in vitro [14]) | selectivity ratio (in vitro [15]) | selectivity ratio (in vitro [16]) | selectivity ratio (in vitro [17]) | selectivity ratio (in vitro [18]) | selectivity ratio (in vitro [19]) | selectivity ratio (in vitro [20])
1 | Nc1nc(=O)n([C@H]2C=C(CO)[C@H](O)[C@@H]2O)cc1F | 1.35 µg/mL (≈ 5.25 µM) | 2.05 µg/mL (≈ 7.97 µM) | 2.63 µg/mL (≈ 10.2 µM) | 1.17 µg/mL (≈ 4.55 µM) | 1.46 µg/mL (≈ 5.68 µM) | > 100 µg/mL | 100 µg/mL (≈ 389 µM) | 39 µg/mL (≈ 152 µM) | 100 µg/mL (≈ 389 µM) | > 100 µg/mL | 86 | > 196 | 189 | 162 | > 74 | > 164 | 49 | > 58 | 15 | > 69
2 | Nc1ccn([C@@H]2C=C(CO)[C@@H](O)[C@H]2O)c(=O)n1 | 0.05 µg/mL (≈ 0.209 µM) | < 0.05 µg/mL | < 0.05 µg/mL | > 100 µg/mL | 0.04 µg/mL (≈ 0.167 µM) | 1 µg/mL (≈ 4.18 µM) | 4 µg/mL (≈ 16.7 µM) | > 100 µg/mL | 30 µg/mL (≈ 125 µM) | 40 µg/mL (≈ 167 µM) | 0.3 | 100 | 300 | > 166 | > 20 | 210 | > 80 | 550 | > 2000 | 1000
3 | Nc1ncnc2c1ncn2[C@@H]1C=C(CO)[C@@H](O)[C@H]1O [NEOPLANOCIN A] | > 100 µg/mL | 0.21 µg/mL (≈ 0.798 µM) | 0.03 µg/mL (≈ 0.114 µM) | 0.14 µg/mL (≈ 0.532 µM) | > 100 µg/mL | 20 µg/mL (≈ 76 µM) | 57 µg/mL (≈ 217 µM) | 50 µg/mL (≈ 190 µM) | – | > 100 µg/mL | 71 | 360 | 12 | 1 | < 0.2 | 161 | 271 | 230 | 1670 | 1
4 | OCC1=C[C@@H](n2cnc3c(O)ncnc32)[C@H](O)[C@@H]1O | > 100 µg/mL | > 100 µg/mL | > 100 µg/mL | > 100 µg/mL | > 100 µg/mL | > 100 µg/mL | > 100 µg/mL | > 100 µg/mL | > 100 µg/mL | > 100 µg/mL | – | – | – | – | – | – | – | – | – | –
